# According to ChEMBL document CHEMBL1201862, “PubChem BioAssay data set” (2004):
# The source made the active and inactive calls. Cut-off read from the data, not from the text of the source, for most assays here: actives have a measured EC50 and inactives only a lower limit.
# Key:
# [1] = system: Streptococcus sp. 'group A'; assay: growth inhibition of control SK(-) GAS strain, dose response, counter-screen for streptokinase expression inhibitor project, luminescence, kanamycin, BacTiterGlo, confirmation (AID 1900); type: functional, organism-based
# Hexokinase-1 = biological target: T1, Hexokinase-1 (Homo sapiens, UniProt P19367); assay: hexokinase 1 activators, dose response, selectivity assay for HKDC1 activator project, biochemical (AID 504762); type: functional
# T1 sequence (P19367 whole entry): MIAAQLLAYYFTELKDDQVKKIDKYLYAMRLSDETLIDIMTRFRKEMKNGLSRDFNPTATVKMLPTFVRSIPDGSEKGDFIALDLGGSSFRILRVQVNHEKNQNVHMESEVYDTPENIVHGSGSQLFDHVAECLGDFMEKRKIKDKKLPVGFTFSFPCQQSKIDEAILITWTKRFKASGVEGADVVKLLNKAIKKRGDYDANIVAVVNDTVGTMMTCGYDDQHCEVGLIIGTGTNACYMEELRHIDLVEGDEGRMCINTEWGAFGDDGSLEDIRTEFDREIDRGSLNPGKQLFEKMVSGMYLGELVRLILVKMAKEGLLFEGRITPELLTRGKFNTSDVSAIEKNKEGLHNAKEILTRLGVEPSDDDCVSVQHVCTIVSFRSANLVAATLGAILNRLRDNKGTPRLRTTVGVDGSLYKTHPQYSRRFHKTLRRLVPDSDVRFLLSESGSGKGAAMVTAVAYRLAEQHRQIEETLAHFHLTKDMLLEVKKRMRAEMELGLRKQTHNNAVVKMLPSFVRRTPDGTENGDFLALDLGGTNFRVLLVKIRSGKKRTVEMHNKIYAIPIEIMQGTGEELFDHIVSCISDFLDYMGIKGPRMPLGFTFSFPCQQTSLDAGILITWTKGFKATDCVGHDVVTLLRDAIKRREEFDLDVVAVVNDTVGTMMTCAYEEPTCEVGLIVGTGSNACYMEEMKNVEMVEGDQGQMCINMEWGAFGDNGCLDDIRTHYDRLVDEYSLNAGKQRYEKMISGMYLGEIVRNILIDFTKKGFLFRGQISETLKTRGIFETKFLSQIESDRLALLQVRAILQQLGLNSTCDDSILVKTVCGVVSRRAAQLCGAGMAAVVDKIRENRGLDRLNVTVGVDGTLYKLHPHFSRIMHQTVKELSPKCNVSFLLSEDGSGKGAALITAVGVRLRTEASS
# [2] = C. albicans growth with fluconazole, confirmation, fluorescence, retest (AID 2467); type: functional, cell-based
# HEK293 = assay: inhibitors of LMP1-driven NF-kB reporter, dose response, cell-based, HEK293, luciferase, cherry-pick (AID 588343); type: functional; conditions: Homo sapiens
# [3] = NIH-3T3 fibroblast cytotoxicity, dose response, cytotoxicity control for antifungal single agent project, cell-based, Alamar Blue, dry powder (AID 602188); type: functional
# [4] = NIH-3T3 fibroblast cytotoxicity, dose response, cytotoxicity control, cell-based, fluorescence, Alamar Blue, secondary assay (AID 2327); type: functional;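 note: NIH-3T3 mouse fibroblasts cultured with fluconazole at 8 µg/mL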
# [5] = inhibitors of intracellular T. cruzi replication, confirmation, NIH3T3 host cells, beta-gal luminescence (AID 2044); type: functional, cell-based;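 note: intracellular parasites grown in NIH/3T3 mouse fibroblasts as host cells; luminescent beta-galactosidase reporter signal from transgenic T. cruzi replicating inside host cells; inhibitors lower the luminescence signal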
# Streptococcus = assay: Group A Streptococcus viability loss, dose response, counter-screen for streptokinase expression inhibitor project, luminescence, BacTiterGlo (AID 1915); type: functional, organism-based;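 note: potency for reduction of bacterial viability or growth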
# Hexokinase HKDC1 = biological target: T2, Hexokinase HKDC1 (Homo sapiens, UniProt Q2TB90); assay: HKDC1 hexokinase activators, dose response, biochemical, W721R variant (AID 504730); type: functional
# T2 sequence (Q2TB90 whole entry): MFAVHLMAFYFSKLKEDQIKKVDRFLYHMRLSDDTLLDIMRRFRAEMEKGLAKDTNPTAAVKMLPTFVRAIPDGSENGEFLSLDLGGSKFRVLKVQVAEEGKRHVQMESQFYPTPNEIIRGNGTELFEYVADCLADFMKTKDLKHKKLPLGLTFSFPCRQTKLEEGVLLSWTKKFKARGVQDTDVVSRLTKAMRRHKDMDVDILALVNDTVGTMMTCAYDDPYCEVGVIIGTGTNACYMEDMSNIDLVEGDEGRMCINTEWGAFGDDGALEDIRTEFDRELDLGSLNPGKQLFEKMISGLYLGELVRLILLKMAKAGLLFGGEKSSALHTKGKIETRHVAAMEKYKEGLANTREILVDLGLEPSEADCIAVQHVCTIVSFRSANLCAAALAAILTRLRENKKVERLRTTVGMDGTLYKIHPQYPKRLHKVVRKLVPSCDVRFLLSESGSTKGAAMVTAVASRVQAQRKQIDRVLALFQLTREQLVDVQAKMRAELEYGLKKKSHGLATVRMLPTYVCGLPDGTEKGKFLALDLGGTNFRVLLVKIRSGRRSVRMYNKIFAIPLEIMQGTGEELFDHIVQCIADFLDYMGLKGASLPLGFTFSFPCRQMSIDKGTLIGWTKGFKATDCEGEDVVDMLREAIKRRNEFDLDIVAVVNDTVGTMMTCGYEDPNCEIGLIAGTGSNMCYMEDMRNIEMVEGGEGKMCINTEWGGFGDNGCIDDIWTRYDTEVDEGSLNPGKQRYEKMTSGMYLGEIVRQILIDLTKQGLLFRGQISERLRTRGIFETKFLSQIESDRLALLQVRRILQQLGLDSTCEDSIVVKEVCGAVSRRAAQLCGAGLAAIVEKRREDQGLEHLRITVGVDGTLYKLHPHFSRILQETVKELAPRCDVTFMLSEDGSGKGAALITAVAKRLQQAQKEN
# [6] = biological target: ATP-dependent molecular chaperone HSP82 (Candida albicans (strain WO-1) (Yeast), UniProt C4YTQ8); assay: loss of DOC-induced GRE-beta-galactosidase reporter signal, dose response, Hsp90 inhibitor project, S. cerevisiae, luminescence (AID 2400); type: functional, cell-based;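 note: beta-galactosidase luminescence from glucocorticoid response element reporter as proxy for Hsp90 function; inhibitor potency where signal loss means Hsp90 inhibition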
# Sequence of ATP-dependent molecular chaperone HSP82 (C4YTQ8 whole entry): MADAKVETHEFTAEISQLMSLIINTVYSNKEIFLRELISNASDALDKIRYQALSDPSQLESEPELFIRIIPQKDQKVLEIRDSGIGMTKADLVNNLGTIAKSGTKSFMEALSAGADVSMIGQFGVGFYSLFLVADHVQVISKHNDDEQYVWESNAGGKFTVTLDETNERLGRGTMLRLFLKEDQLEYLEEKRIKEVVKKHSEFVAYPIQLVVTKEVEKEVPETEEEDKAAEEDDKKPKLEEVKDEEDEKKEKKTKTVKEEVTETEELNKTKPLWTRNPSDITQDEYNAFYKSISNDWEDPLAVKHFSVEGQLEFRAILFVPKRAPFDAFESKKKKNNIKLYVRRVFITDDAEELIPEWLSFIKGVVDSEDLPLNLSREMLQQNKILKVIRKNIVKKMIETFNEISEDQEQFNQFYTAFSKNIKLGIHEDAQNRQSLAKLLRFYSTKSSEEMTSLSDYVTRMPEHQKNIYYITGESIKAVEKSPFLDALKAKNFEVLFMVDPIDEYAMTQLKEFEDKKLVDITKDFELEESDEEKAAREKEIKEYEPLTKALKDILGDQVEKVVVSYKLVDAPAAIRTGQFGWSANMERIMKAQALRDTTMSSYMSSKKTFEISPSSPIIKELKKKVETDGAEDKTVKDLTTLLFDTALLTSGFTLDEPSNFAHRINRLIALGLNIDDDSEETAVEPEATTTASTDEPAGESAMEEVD
# [7] = Shn3 3'UTR reporter inhibitors, dose response, cell-based, Clone20 osteoblasts, firefly luciferase, cherry-picked (AID 624132); type: functional;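 note: firefly luciferase luminescence from reporter carrying the Shn3 3'UTR in osteoblasts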
# [8] = control 3'UTR Renilla luciferase suppression, dose response, counter-screen for Shn3 inhibitor project, cell-based, Clone20-Shn3RL, cherry-picked (AID 624133); type: functional
# [9] = HepG2 cell cytotoxicity, dose response, cytotoxicity control for Shn3 inhibitor project, CellTiter-Glo, cherry-picked (AID 624134); type: functional, cell-based
# Nonstructural protein 1 = Nonstructural protein 1 (Influenza A virus, UniProt Q194T2); type: functional, Influenza A virus (A/California/07/2009(H1N1))
# Sequence of Nonstructural protein 1 (Q194T2 whole entry): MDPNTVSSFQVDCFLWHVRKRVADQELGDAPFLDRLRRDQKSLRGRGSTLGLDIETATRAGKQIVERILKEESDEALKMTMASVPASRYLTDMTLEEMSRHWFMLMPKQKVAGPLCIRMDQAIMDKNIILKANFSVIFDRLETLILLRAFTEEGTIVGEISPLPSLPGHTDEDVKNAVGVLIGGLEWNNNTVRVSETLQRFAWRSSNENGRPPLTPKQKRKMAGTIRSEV
# [10] = cytotoxicity toward NIH3T3 fibroblasts, dose response, counter-screen, cell-based, ATP luminescence, mouse fibroblasts (AID 2010); type: functional;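 note: cells exposed to compound for about 90 hours before reading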
# cells [11] = type: functional, cell-based
# cells [12] = type: functional, cell-based; remark: listed apart in the source
# INS1 = assay: beta cell apoptosis inhibitors, cytokine rescue, dose response, luminescence, retest (AID 449756); type: functional, cell-based; conditions: Rattus norvegicus;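 note: cell death triggered by IL-1 beta plus TNF-alpha plus IFN-gamma mixture; protective hits raise ATP signal compared with cytokine alone wells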
# [13] = biological target: T3, Serine/threonine-protein phosphatase (Candida dubliniensis (strain CD36 / CBS 7987 / NCPF 3949 / NRRLY-17841) (Yeast), UniProt B9W6M3); assay: calcineurin pathway inhibitors in yeast reporter, dose response, S. cerevisiae, CDRE-lacZ, luminescence, secondary (AID 2388); type: functional, cell-based;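 note: yeast reporter cells carrying a calcineurin-responsive lacZ construct stimulated with calcium chloride; luminescent beta-galactosidase reporter signal in whole cells rather than isolated phosphatase activity; potency for inhibition where a drop in reporter signal means calcineurin blockade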
# T3 sequence (B9W6M3 whole entry): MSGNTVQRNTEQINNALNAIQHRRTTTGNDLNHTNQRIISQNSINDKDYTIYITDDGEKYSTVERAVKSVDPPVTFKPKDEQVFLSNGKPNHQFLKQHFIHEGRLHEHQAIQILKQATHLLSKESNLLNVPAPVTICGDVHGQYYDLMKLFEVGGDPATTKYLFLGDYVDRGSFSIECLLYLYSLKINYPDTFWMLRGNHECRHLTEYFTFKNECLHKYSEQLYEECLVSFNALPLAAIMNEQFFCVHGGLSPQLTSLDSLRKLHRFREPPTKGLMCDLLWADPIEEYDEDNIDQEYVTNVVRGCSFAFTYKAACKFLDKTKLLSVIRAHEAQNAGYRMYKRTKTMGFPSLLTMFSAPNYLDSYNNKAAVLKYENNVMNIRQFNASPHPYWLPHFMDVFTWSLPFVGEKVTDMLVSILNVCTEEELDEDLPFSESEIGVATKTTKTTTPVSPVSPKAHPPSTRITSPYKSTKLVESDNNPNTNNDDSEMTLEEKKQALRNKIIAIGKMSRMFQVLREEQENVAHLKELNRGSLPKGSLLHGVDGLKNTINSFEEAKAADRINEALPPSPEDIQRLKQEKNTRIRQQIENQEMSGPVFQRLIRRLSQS
# [14] = luciferase reporter signal reduction – luminescence, H4-C neuroglioblastoma cells, dose response (AID 2458); type: functional, cell-based;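 note: H4 neuroglioblastoma cells stably carrying a luciferase reporter gene fusion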
# [15] = inhibitors of SNCA 5'UTR-driven translation, confirmation, luminescence, H4 neuroglioblastoma cells, dose confirmation (AID 2454); type: functional, cell-based;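 note: H4 neuroglioblastoma cells carrying an alpha-synuclein 5'UTR luciferase reporter; potency for inhibition of the luciferase signal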
# [16] = Luminescence Cell-Based Dose Response HTS to Identify Activators of Luciferase Translation or Activity in H4-C Neuroglioblastoma Cells. [Related pubchem assays: 1829 (Project Summary), 1814 (Primary HTS)]; type: functional
# [17] = Luminescence Cell-Based Dose HTS Response to Identify Inhibitors of 5'UTR Stem-Loop Driven Prion Protein mRNA Translation in H4-C Neuroglioblastoma Cells. [Related pubchem assays (depositor defined):AID1814, AID1827]; type: functional
# [18] = biological target: T4, Type-1 angiotensin II receptor (Homo sapiens, UniProt P30556); assay: AT1 receptor antagonists, dose response, selectivity assay for APJ receptor antagonist project, cell-based, uHTS hits (AID 463214); type: functional;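 note: antagonist potency against angiotensin II stimulated AT1 response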
# T4 sequence (P30556 whole entry): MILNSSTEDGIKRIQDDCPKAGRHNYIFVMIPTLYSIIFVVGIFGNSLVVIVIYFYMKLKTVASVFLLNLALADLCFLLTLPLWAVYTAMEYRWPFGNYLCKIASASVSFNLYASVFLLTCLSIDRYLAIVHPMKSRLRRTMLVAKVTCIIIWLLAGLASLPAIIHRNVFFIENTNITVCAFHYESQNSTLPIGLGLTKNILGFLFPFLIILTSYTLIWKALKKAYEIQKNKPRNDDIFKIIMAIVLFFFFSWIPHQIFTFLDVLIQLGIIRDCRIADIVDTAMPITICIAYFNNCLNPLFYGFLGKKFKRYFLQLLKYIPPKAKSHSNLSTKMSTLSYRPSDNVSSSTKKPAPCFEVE
# [19] = biological target: Induced myeloid leukemia cell differentiation protein Mcl-1 (Homo sapiens, UniProt Q07820); type: functional
# Sequence of Induced myeloid leukemia cell differentiation protein Mcl-1 (Q07820 whole entry): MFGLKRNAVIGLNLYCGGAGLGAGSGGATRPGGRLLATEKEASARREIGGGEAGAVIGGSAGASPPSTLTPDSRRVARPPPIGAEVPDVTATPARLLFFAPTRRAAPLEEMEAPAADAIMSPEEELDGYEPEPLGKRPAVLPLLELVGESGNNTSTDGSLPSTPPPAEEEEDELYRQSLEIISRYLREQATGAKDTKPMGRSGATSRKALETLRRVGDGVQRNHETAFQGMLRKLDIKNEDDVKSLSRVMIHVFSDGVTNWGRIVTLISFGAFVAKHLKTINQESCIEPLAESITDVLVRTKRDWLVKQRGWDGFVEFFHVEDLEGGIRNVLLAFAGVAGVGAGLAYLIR
# [20] = Luminescence Cell-Based Dose Response HTS to Identify Activators of 5'UTR Stem-Loop Driven Prion Protein mRNA Translation in H4-C Neuroglioblastoma Cells. [Related pubchem assays: 1829 (Project Summary), 1814 (Primary HTS)]; type: functional
# [21] = Luminescence Cell-Based Dose Response HTS to Identify Inhibitors of Luciferase Translation or Activity in H4-C Neuroglioblastoma Cells. [Related pubchem assays: 1813 (Primary HTS), 1827 (Project Summary)]; type: functional
# Beta-galactosidase = Beta-galactosidase (Escherichia coli, UniProt Q8VNN2); assay: PubChem AID 485352; type: functional
# Sequence of Beta-galactosidase (Q8VNN2 whole entry): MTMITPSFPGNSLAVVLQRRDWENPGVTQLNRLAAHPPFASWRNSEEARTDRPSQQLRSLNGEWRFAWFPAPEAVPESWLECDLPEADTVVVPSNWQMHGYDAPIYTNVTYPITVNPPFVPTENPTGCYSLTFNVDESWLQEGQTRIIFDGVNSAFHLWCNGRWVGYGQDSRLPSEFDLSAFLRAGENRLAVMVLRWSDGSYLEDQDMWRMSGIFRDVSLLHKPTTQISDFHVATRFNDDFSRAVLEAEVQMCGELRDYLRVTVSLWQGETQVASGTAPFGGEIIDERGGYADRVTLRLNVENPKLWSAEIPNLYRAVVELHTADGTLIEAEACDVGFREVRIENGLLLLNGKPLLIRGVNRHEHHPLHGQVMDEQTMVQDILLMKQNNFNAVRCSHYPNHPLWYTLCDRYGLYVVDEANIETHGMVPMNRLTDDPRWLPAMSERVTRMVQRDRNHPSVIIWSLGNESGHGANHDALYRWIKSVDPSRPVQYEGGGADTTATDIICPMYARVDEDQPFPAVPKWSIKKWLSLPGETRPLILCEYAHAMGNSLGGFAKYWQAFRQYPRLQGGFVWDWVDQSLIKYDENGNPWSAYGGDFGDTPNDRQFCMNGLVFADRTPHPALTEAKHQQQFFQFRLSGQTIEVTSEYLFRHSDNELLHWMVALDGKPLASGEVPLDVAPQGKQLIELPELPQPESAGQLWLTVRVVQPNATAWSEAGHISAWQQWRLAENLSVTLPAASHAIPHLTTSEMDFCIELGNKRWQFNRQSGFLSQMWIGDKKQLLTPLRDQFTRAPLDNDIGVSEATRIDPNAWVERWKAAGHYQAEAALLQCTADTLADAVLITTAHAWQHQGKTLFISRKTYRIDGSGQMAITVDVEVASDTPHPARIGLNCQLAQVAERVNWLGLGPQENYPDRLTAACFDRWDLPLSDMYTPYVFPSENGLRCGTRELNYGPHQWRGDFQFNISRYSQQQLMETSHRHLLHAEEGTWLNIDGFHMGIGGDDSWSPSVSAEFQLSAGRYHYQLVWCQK
# [22] = Luminescence Cell-Based Dose Confirmation HTS to Identify Inhibitors of 5'UTR Stem-Loop Driven Alpha-Synuclein mRNA Translation in H4 Neuroglioblastoma Cells. [Related pubchem assays: 1827 (Project Summary), 1813 (Primary HTS)]; type: functional
# [23] = Luminescence Cell-Based Dose Response HTS to Identify Inhibitors of 5'UTR Stem-Loop Driven Prion Protein mRNA Translation in H4 Neuroglioblastoma Cells. [Related pubchem assays: 1827 (Project Summary), 1813 (Primary HTS)]; type: functional
# [24] = cytotoxicity in HEK-293T cells, dose response, cytotoxicity control for TCR NF-kB inhibitor project, luminescence, T-cell screen hits (AID 489026); type: functional, cell-based;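 note: cells exposed to compound about 14 hours before the viability readout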
# [25] = Luminescence Cell-Based Dose Retest to Confirm Activators of 5'UTR Stem-Loop Driven Alpha-Synuclein mRNA Translation in H4 Neuroglioblastoma Cells. [Related pubchem assays (depositor defined):AID1813, AID1829]; type: functional
# [26] = inhibitors of firefly luciferase expression or activity, dose response, H4 neuroglioma cells, luminescence (AID 1990); type: functional, cell-based
# cells [27] = type: functional, cell-based; remark: listed apart in the source
# [28] = inhibitors of SNCA 5'UTR-driven reporter translation, confirmation, H4 neuroglioma cells, luminescence (AID 1988); type: functional, cell-based
smiles,measurement,setting,value
O=C(NNC(=S)Nc1ccc(Cl)c(Cl)c1)c1ccccn1,EC50,[1],2.3 µM (active)
same,EC50,Hexokinase-1,> 80 µM (inactive)
same,EC50,[2],853 nM (active)
same,AC50,HEK293,6.08 µM (active)
same,AC50,[3],2.98 µM (active)
same,EC50,[4],42 µM (inconclusive)
same,EC50,[5],1.53 µM (active)
same,EC50,Streptococcus,3.32 µM (active)
same,EC50,Hexokinase HKDC1,2.2 µM (active)
same,EC50,[6],> 150 µM (inactive)
same,AC50,[7],2.33 µM (active)
same,AC50,[8],2.44 µM (active)
same,AC50,[9],3.72 µM (active)
same,IC50,Nonstructural protein 1,5.57 µM (active)
same,EC50,[10],5.02 µM (active)
same,EC50,cells [11],> 350 µM (not active)
same,EC50,cells [12],10.5 µM (active)
same,AC50,INS1,1.06 µM (active)
same,EC50,[13],> 180 µM (inactive)
O=[N+]([O-])c1ccc(O)c(/C=N/Nc2ccc(Cl)nn2)c1,EC50,[14],717 nM (active)
same,EC50,[15],650 nM (active)
same,EC50,[1],0.305 µM (active)
same,EC50,[16],1.05 µM (inconclusive)
same,EC50,[2],179 nM (active)
same,EC50,[17],904 nM (active)
same,IC50,[18],3.63 µM (active)
same,IC50,[19],14.1 µM (active)
same,EC50,[4],14.6 µM (inconclusive)
same,EC50,[20],375 nM (inconclusive)
same,EC50,[5],0.633 µM (active)
same,EC50,Streptococcus,0.944 µM (active)
same,EC50,[21],925 nM (active)
same,EC50,[6],> 150 µM (inactive)
same,EC50,Beta-galactosidase,> 40 µM (inactive)
same,EC50,[22],825 nM (active)
same,EC50,[23],> 120 µM (not active)
same,IC50,[24],> 80 µM (inactive)
same,IC50,Nonstructural protein 1,1.32 µM (active)
same,EC50,[10],< 6 µM (inconclusive)
same,EC50,[25],673 nM (inconclusive)
same,EC50,[26],9.52 µM (active)
same,EC50,cells [27],779 nM (active)
same,EC50,[28],< 100 nM (active)
same,EC50,[13],> 180 µM (inactive)
